Assay [1] has as its system M. tuberculosis H37Rv growth inhibition, glycerol-free medium. As to the kind of experiment: Confirmatory M tuberculosis H37Rv growth inhibition assay in glycerol free medium (AID 504898). Conditions: for pIC50: measured here: M. tuberculosis growth IC50.
Test in assay [2]: as above
To be noted: M. tuberculosis H37Rv growth inhibition, glycerol-free medium; at 100 µM (top of the series).

Molecules are shown by their SMILES. pIC50: −log10 of the molar value. Activity calls are given as the source filed them. The rule behind the calls is not given here.

What is called IC90 is the concentration needed for an effect of 90%. For orientation: pIC50 means the IC50 on a negative log10 scale, so that one unit is a factor of ten.

In the case of `NNC(=O)c1ccncc1`, in assay [1], the IC90 was 0.46 µM and the pIC50 was 6.51.
For `CCOC1OC(=O)C(Cl)=C1Nc1ccccc1C` (stereo not given) the same measures were 5.98 µM and 5.53.
Taken in the same sequence, the figures for `O=C(CSc1nc2c(c(=O)[nH]1)CCC2)NC1CCCCC1` were under 0.1 µM and over 7.19.
In the case of `O=C(CSc1nc2ccccc2c(=O)[nH]1)N1CCOCC1`, in assay [2], the growth inhibition is 3.26% (inactive).
Same read-out and setting: the same measure for `CCOC(=O)CSc1nc(C)c(C)c(=O)[nH]1`: -0.94% (inactive).
Regarding `Cc1cnc(SCC(=O)NC2CCCCC2)[nH]c1=O`, the growth inhibition in assay [2] was -3.1% (inactive).
The same measure, in the same setting: the same measure for `COc1ccc(NC(=O)CSc2nc3ccccc3c(=O)[nH]2)cc1`: 1.8% (inactive); for `CCC(Sc1nc2ccccc2c(=O)[nH]1)C(=O)Nc1cccc(OC)c1` (stereo not given): -0.61% (inactive).
In assay [1], `Cc1cc(Br)ccc1NC(=O)c1cnc(N2CCN(c3ccccn3)CC2)c2ccccc12` gave a pIC50 of 5.36.
Regarding `CCC(Sc1nc2c(c(=O)[nH]1)CCC2)C(=O)Nc1cccc(OC)c1` (stereo not given), the growth inhibition in assay [2] was -0.59% (inactive).
Take `Cc1ccc(NC(=O)COC(=O)CCc2c[nH]c3ccccc23)cc1[N+](=O)[O-]`: in assay [1], the IC90 is 8.51 µM and the pIC50 was 5.63.
Regarding `Nc1cc(=O)[nH]c(SCC(=O)NC2CCCCC2)n1`, the growth inhibition in assay [2] was 0.56% (inactive).
On to `CC[N+](C)(CC)CCCCOc1ccc2c(c1)C(=O)c1cc(OCCCC[N+](C)(CC)CC)ccc1-2`, for which, in assay [1], the IC90 is 2.8 µM and the pIC50 is 5.72.
Turning to `CN1CCC(NC(=O)CSc2nc3ccccc3c(=O)[nH]2)CC1`, the growth inhibition in assay [2] was -4% (inactive).
Still for that read-out and setting: the same measure for `O=c1[nH]c(SCc2ccccc2Cl)nc2c1CCCC2`: 0.45% (inactive).
For the molecule `O=C(CSc1nc2ccccc2c(=O)[nH]1)NC1CCCCC1`, in assay [1], the IC90 is 0.51 µM and the pIC50 was 6.44.
For `CC1CCN(C(=O)C2CCN(c3nnc(-n4cccc4)s3)CC2)CC1` the same measures were 6.19 µM and 5.52.
As to `Cn1c(SCC(=O)NC2CCCCC2)nc2ccccc2c1=O`, in assay [2], the growth inhibition is -3.28% (inactive).
`CN(C(=O)CSc1nc2ccccc2c(=O)[nH]1)C1CCCCC1`: the growth inhibition in assay [2] is 2.63% (inactive).
The same measure, in the same setting: the same measure for `O=C(CSc1nccc(=O)[nH]1)NC1CCCCC1`: -5.34% (inactive); for `O=C(CSc1ncccn1)NC1CCCCC1`: -3.37% (inactive); for `Cc1nc(SCC(N)=O)[nH]c(=O)c1C`: 3% (inactive).
As for `Cc1[nH]c(=S)[nH]c(=O)c1C`, the growth inhibition in assay [2] is -2.88% (inactive).
In the case of `CCSc1nc(C)c(C)c(=O)[nH]1`, the growth inhibition in assay [2] is 3.43% (inactive).
Same read-out and setting: the value for `CC(Sc1nc2ccccc2c(=O)[nH]1)C(=O)NC1CCCCC1` (stereo not given) was -1.37% (inactive).
Turning to `O=C(CSc1nc2c(c(=O)[nH]1)CCCC2)NC1CCCCC1`, in assay [1], the IC90 is under 0.11 µM and the pIC50 is over 7.24.
Taken in the same sequence, the figures for `COC(=O)C(C)Oc1ccc(Cc2ncc(C(F)(F)F)cc2Cl)cc1` (stereo not given) were 5.62 µM and 5.44.
Take `COC(=O)c1ccc(CNc2c(N3CCCC3)c(=O)c2=O)cc1`: the growth inhibition in assay [2] is 0.74% (inactive).
For `Cc1nc(SCC(=O)NCCC(C)C)[nH]c(=O)c1C`, in assay [1], the IC90 is 13.6 µM and the pIC50 is 5.03.
For `O=C(CSc1nc2ccccc2c(=O)[nH]1)NC1CCCC1` the same measures were 0.63 µM and 6.57.
In the case of `NC(=O)CSc1nc2ccccc2c(=O)[nH]1`, in assay [2], the growth inhibition was 3.58% (inactive).
Take `Cc1cccc(-c2oc3ccc(-c4ccc5c(c4)OCO5)cc3c2C#Cc2cncn2C)c1`: in assay [1], the IC90 is 3.02 µM and the pIC50 was 5.58.
As for `CCSc1nc2ccccc2c(=O)[nH]1`, the growth inhibition in assay [2] is -0.83% (inactive).
For `NC[C@H]1O[C@H](O[C@H]2[C@H](O)[C@@H](O[C@H]3O[C@H](CO)[C@@H](O)[C@H](N)[C@H]3O)[C@H](N)C[C@@H]2N)[C@H](O)[C@@H](O)[C@@H]1O`, in assay [1], the IC90 was 2.42 µM and the pIC50 is 5.75.
In the case of `Cc1cc(=O)[nH]c(SCC(=O)NC2CCCCC2)n1`, the growth inhibition in assay [2] was -3.3% (inactive).
Still for that read-out and setting: the value for `CN(C)C(=O)CSc1nc2ccccc2c(=O)[nH]1` was 4.4% (inactive).
Consider `CC(C)CCNC(=O)CSc1nc2ccccc2c(=O)[nH]1`, for which, in assay [1], the IC90 was 0.28 µM and the pIC50 was over 6.96.
Consider `O=C(CSc1ccccn1)NC1CCCCC1`, for which the growth inhibition in assay [2] is 13.4% (inactive).
Molecule `Cc1[nH]c2ccccc2c1C(=O)COC(=O)c1ccc([N+](=O)[O-])s1` showed a pIC50 in assay [1] of under 4.17.
As to `O=C(CSc1nc2ccccc2c(=O)[nH]1)NCc1ccc(Cl)cc1`, in assay [1], the IC90 is 1.6 µM and the pIC50 is 5.96.
On to `Cc1nc(SCC(=O)N(C)c2ccccc2)[nH]c(=O)c1C`, for which, in assay [2], the growth inhibition is -9.33% (inactive).
Still for that read-out and setting: the same measure for `Cc1cc(=O)[nH]c(=S)[nH]1`: -2.75% (inactive).
As to `CC(C)N=c1cc2n(-c3ccc(Cl)cc3)c3ccccc3nc-2cc1Nc1ccc(Cl)cc1`, in assay [1], the IC90 is 0.36 µM and the pIC50 is 7.17.
With `c1ccc(/N=C2\N=C(Nc3ccccn3)c3ccccc32)nc1`, in assay [1], the IC90 was 2.52 µM and the pIC50 was 5.75.
As to `Nc1c(C(=O)NC2CCCCC2)nsc1C(=O)OCC(=O)NC1CCCCC1`, in assay [1], the IC90 is 52.6 µM and the pIC50 was 5.18.
Taken in the same sequence, the figures for `Cc1cccc(/C=C/C(=O)c2ccc([N+](=O)[O-])o2)c1` were 2.23 µM and 5.83.
As for `COC(=O)C(Nc1nc(SCC(=O)NC2CCCCC2)nc2ccccc12)c1ccccc1` (stereo not given), in assay [2], the growth inhibition is -4.58% (inactive).
Same read-out and setting: the value for `Cc1c[nH]c(=S)[nH]c1=O` was -1.93% (inactive).
`CN[C@@H]1[C@H](O[C@H]2[C@H](O[C@H]3[C@H](O)[C@@H](O)[C@H](N=C(N)N)[C@@H](O)[C@@H]3N=C(N)N)O[C@@H](C)[C@]2(O)C=O)O[C@@H](CO)[C@H](O)[C@H]1O`: in assay [1], the IC90 was 0.18 µM and the pIC50 was 6.90.
For `Cc1ccc(C(=O)N/N=C(/CC(=O)c2cccs2)C(F)(F)F)cc1` the same measures were 2.9 µM and 5.77.
Taken in the same sequence, the figures for `Cc1nc(SCC(=O)NC2CCCC2)[nH]c(=O)c1C` were 13.8 µM and 5.02.
As to `Cc1ccc(NC(=O)CSc2nc3ccccc3c(=O)[nH]2)cc1Cl`, the growth inhibition in assay [2] was -2.52% (inactive).
On the same count and under the same terms, the same measure for `COc1cccc(NC(=O)CSc2nc3ccccc3c(=O)[nH]2)c1`: -2.5% (inactive).
`CC(C)NC(=O)CSc1nc2ccccc2c(=O)[nH]1`: in assay [1], the IC90 is 15 µM and the pIC50 was 5.01.
With `O=c1[nH]c(=S)[nH]c2ccccc12`, in assay [2], the growth inhibition was -2.86% (inactive).
Take `CNC(=O)CSc1nc2ccccc2c(=O)[nH]1`: the pIC50 in assay [1] is 4.11.
As to `CC(C)CCNC(=O)CSc1nc2c(c(=O)[nH]1)CCC2`, in assay [1], the IC90 was 2.02 µM and the pIC50 was 5.86.
For the molecule `CCC(Sc1nc2ccccc2c(=O)[nH]1)C(=O)NC1CCCCC1` (stereo not given), in assay [2], the growth inhibition is -0.87% (inactive).
`Cc1cc(C)n2nc(N)c(N=Nc3ccccc3)c2n1`: in assay [1], the IC90 is 5.84 µM and the pIC50 was 5.37.
As for `NC(=O)c1cnccn1`, the growth inhibition in assay [2] was 3.35% (inactive).
In the case of `CCCc1cc(C(N)=S)ccn1`, in assay [1], the pIC50 is 5.02.
With `CC1CCN(C(=O)CSc2nc3ccccc3c(=O)[nH]2)CC1`, the growth inhibition in assay [2] was -0.8% (inactive).
As for `Cc1nc(SCC(=O)NC2CCCCC2)[nH]c(=O)c1C`, in assay [1], the concentration for an effect of 90% (IC90) is 9.53 µM and the pIC50 is 6.89.
Taken in the same sequence, the figures for `COc1c(N2CCNC(C)C2)c(F)cc2c(=O)c(C(=O)O)cn(C3CC3)c12` (stereo not given) were 0.14 µM and 6.96.
For `CCOc1ccc(-c2cc(C)[n+](CCc3ccc(OC)c(OC)c3)c(-c3ccc(OCC)cc3)c2)cc1` the same measures were 1.45 µM and 6.14.
`Cc1nc(SCc2ccccc2Cl)[nH]c(=O)c1C`: in assay [2], the growth inhibition was -0.81% (inactive).
On the same count and under the same terms, the value for `COc1cccc(NC(=O)CSc2nc3c(c(=O)[nH]2)CCC3)c1` was -9.1% (inactive).

Source of the values: PubChem BioAssay AID504898 (Southern Research Specialized Biocontainment Screening …, 2011).
